Data on one compound can be found in PMC9254247, “Dual-sensitive antibacterial peptide nanoparticles prevent dental caries” (Theranostics, 2022).

≈ marks a conversion by molar mass, not a printed value.

The test system of assay [1] is S. mutans UA159 (ATCC 700610). The assay can be described thus: Minimal inhibition concentration (MIC) determination, S. mutans UA159. The format is cell-based. The settings on record: Streptococcus mutans, ATCC700610, BHI medium, 48 h, A600. On the procedure: Minimal inhibition concentration (MIC) determination . S.mutans UA159 (ATCC 700610) and 20 clinical S.mutans strains were used. S.mutans UA159 was purchased from Shanghai Biofeng Biotechnology Co., LTD. These bacteria grown in brain heart infusion broth (BHI, Beijing Land Bridge, China) at 37 °C under anaerobic conditions.
Due to bacteria incubation under the condition of excessive acid for a long time will affect its vitality, therefore, pH 5.5 was choose as acidic condition for the MIC determination. Peptides and CHX were dissolved in BHI medium of different pHs (pH 5.5 and 7.0) using serial dilutions to obtain different diluted solutions. 2 µL of bacteria (1×10^7 CFU (colony forming units) in the logarithmic phase were added into each well of 96-well plates containing 200 µL different diluted solutions. Note that […]
the aggregate behavior of peptides. In order to avoid interfering with the MIC test, it is important to set up the control wells which only contain different concentrations of peptides in BHI medium of different pHs. The absorbance at 600 nm was detected with a microplate reader (Multiskan Spectrum, BioTek Inc., USA) after 48 h. The inhibition rate of drugs on bacteria was calculated based on the absorbance […]
The SYTO 9 / PI double staining and scanning electron microscopy (SEM) were also performed to evaluate the bacterial killing and bacterial membrane disruption. […]

For assay [2], the system named is S. mutans UA159 biofilms on sHA. The assay can be described thus: Biofilm model on saliva-coated hydroxyapatite (sHA). Type of assay: cell-based, Streptococcus mutans. The settings on record: 55 µM; pH 4.5; 10 min, total of 5 days; n = 3. From the text:
Treatment and quantitative analysis of b iofilm model on sHA. S.mutans biofilms also formed on sHA blocks (surface area=1 ± 0.2 cm2) in 24-well plates. According to the literature10, before the experiment, hydroxyapatite (diameter, 1.25 cm; Kunshan Chinese technology new materials CO, LTD) was coated with filter-sterilized clarified human whole saliva. The biofilm formation, treatment regimen, and quantitative analysis were roughly similar to the biofilms formed on circular glass slides as described above. The differences are that the biofilms should be treated after 24 hours of formation and biofilms were treated every other day for a total of 5 days. In addition, after treatment for 5 days, the sHA blocks were washed with PBS (pH 7.0) and then fixed with 2.5 % glutaraldehyde for 10 min. After being washed another 3 times with PBS (pH 7.0) to remove the remaining glutaraldehyde, the sHA blocks were stained using 0.5% crystal violet for 20 min. The fully washed sHA blocks were observedunder a light microscope (Insein Li Fung1080P 60FPS, China).
Treatment and quantitative analysis of human derived ex vivo biofilm s. […] The total cultivable bacteria for ex vivo biofilm formation was measured to ensure the same density of added bacteria (~2× 108). […] The quantitative analysis was measured by counting the CFU of alive bacteria with agar plating after incubation for 48 h at 37 °C. […]

Usually MIC stands for the lowest concentration that inhibits growth of the organism. For the compound `[H]/N=C(\N/C(=N/[H])NCCCCCCNC(=N)NC(=N)Nc1ccc(Cl)cc1)Nc1ccc(Cl)cc1` [CHX, chlorhexidine], the values for the MIC in assay [1] (pH 5.5) and in assay [1] (pH 7.0) were 0.5 µM (≈ 0.253 µg/mL) and 1 µM (≈ 0.505 µg/mL), respectively. In addition, the “biofilm on sHA, viable cell count (CFU)” value in assay [2] is “apparent antibiofilm efficacy”.
